Source: patent US20260014184A1, “ADENOSINE DERIVATIVES FOR USE IN THE TREATMENT OF NEURODEGENERATIVE DISORDERS AND CANCER” (UNIVERSITY COLLEGE CARDIFF CONSULTANTS LIMITED, priority 2022, published 2026)

Assays:
OPA1 = OPA1 cleavage immunoblot (mitochondrial membrane depolarization) in parkin-transfected HeLa cells; type: cell-based; details: 50 μM 24 h, then 10 μM CCCP 3 h
Method: (§1) Both HeLa and parkin-overexpressed HeLa cells were maintained in DMEM high glucose (Gibco), 10% FBS (Sigma-Aldrich) at 37° C. with 5% CO2. For experiments, cells were counted and seeded into a range of culture plates, depending on the experiment, cell counting was done using the Cellometer Auto T4 with TrypanBlue (Gibco). […] Alternatively, HeLa cells were seeded in well plates and then transfected with […] of parkin cDNA using the PEI method once the plated cells reached 60% confluency. After 6 hours, the media was changed. Sub-culturing was done when the cells reached ˜90% confluency.
(§2) Cell culture with 70-80% confluency was lysed as follows: cells were washed with Phosphate Buffer Saline (PBS) (Sigma). 150 μl of lysis buffer was used on each well containing either: • 50 mM Tris-HCl pH 7.5, 1 mM EDTA, 1 mM EGTA, 0.27 M sucrose, 1 mM Na3VO4, 50 mM NaF, 5 mM Na pyrophosphate and fresh 1 mM benzamidine, 1% NP-40 and […]; or • 50 mM Tris-HCl pH 7.5, 1 mM EDTA, 1 mM EGTA, 10 mM Na β-glycerophosphate, 0.27 M sucrose, 1 mM Na3VO4, 50 mM NaF, 10 mM Na pyrophosphate with fresh 1 mM benzamidine, 1% Triton X-100, complete EDTA-free Protease Inhibitor, Phosphatase inhibitor cocktail 3 and 100 μM of 2-chloroacetamide.
(§3) The cells were scrapped and transferred to the microtube and eventually spun down at 12,000 rpm for 15 minutes at 4° C. Finally, the supernatant was transferred to the new microtubes and stored at −20° C. Protein concentration was measured using Bradford Assay. Serial concentrations 0.125; 0.25; 0.5 and 1 mg/ml of Bovine Serum Albumin (BSA) (Sigma Aldrich) were used as a standard. Samples were boiled at 90° C. for 5 minutes in SDS sample loading buffer.
(§4) To explore this, we first treated parkin-transfected HeLa cells for 24 h with 50 μM kinetin, kinetin riboside or kinetin riboside ProTide, a monophosphate prodrug of kinetin riboside.

PINK1 [1] = biological target: T1, PINK1 (Homo sapiens, UniProt Q9BXM7); experiment: PINK1 activation in cells judged by parkin Ser65 phosphorylation (parkin-transfected HeLa cells); type: cell-based; details: 50 μM, 1 h
T1 construct: HeLa cells, which express PINK1 endogenously; endogenous in cells; host or cells: HeLa cells transiently transfected with parkin
T1 sequence (Q9BXM7 78-581): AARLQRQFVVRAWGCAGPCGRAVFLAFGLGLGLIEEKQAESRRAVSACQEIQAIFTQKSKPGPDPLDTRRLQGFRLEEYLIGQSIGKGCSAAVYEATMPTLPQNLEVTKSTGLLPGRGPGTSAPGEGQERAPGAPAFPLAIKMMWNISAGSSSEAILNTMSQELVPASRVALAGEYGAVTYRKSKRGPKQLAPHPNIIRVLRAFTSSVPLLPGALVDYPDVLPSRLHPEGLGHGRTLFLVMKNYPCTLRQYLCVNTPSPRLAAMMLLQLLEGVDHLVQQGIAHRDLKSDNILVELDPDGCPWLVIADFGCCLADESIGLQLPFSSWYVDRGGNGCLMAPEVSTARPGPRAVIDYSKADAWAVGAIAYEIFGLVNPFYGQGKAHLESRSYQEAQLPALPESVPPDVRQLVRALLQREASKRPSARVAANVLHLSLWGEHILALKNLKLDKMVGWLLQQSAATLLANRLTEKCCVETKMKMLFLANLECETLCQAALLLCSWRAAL
Method: as §1, §2, §3

[2] = test system: immortalised MEF expressing PINK1 wild-type (WT); experiment: MitoQC mitophagy assay, MEF expressing PINK1 wild-type; type: cell-based; details: 5 μM, 24 h
Description: With the inhibition of ubiquitin phosphorylation and parkin localisation to the mitochondria by kinetin riboside and the nucleoside analogue 9c, we next asked whether these compounds still induce mitophagy in a PINK1 dependent manner. To explore this, we employed the established MitoQC assay for measuring mitophagy in cells^11,12.

Ub Ser65 phosphorylation [3] = experiment: Immunofluorescence for Ub Ser65 phosphorylation in YFP-parkin transfected HeLa cells; type: cell-based; details: immunofluorescence; for impact on ubiquitin phosphorylation, compound alone: 50 μM, 24 h, no niclosamide or CCCP
Method: Cells were seeded on PerkinElmer PhenoPlate 96-well plates, followed by treatment with compounds. Cells were fixed in chilled 4% PFA for 10 min followed by washes in PBS. […] Following PBS washes, cells were blocked using blocking buffer (PBS, 5% BSA, 0.1% Tween20) for 1 h at room temperature. Primary antibodies were diluted in blocking buffer and added to cells to be incubated overnight at 4° C. Cells were subsequently washed with PBS-T and the appropriate secondary antibodies (diluted in blocking buffer) were added for 2 h at room temperature in darkness. 10 μg/ml of Hoechst 33258 stain was added with secondary antibodies when required. Cells were again washed with PBS-T followed by addition of PBS with 0.02% sodium azide. Cells were then stored at 4° C. until ready for imaging. Primary antibodies used for immunofluorescence are as follows: Phospho-Ub Ser 65 (Sigma-Aldrich cat #ABS1513-1), TOM20 (Santa-Cruz cat #sc-17764). Secondary antibodies and stains used in immunofluorescence; Anti-IgG2a Alexa Fluor™ 546 (ThermoFisher cat #A21133) Anti-rabbit Alexa Fluor™ 647 (ThermoFisher cat #A21244), Hoechst 33258 stain (Sigma-Aldrich cat #B2883).
Confocal microscopy was performed using a Zeiss LSM800 w/Airyscan fluorescent microscope equipped with lasers emitting at 405 nm, 488 nm, 561 nm and 640 nm. All images were captured using a 40x oil immersion objective lens and processed using Zeiss ZEN software. Images were analysed and quantified using Columbus (PerkinElmer) and TIBCO Spotfire software.
First, HeLa cells transfected with YFP-parkin were either left untreated or treated with 50 μM kinetin riboside, nucleosides 9a and 9c for 24 h.

PINK1 [4] = biological target: T1, PINK1; details: evidenced by parkin Ser65 phosphorylation; cited from earlier work
[5] = test system: HeLa cells transfected with YFP-parkin; experiment: TMRM fluorescence (mitochondrial membrane potential); type: cell-based; details: pre-treatment 50 μM 24 h; data not shown
Method: For assessing tetramethylrhodamine methyl ester perchlorate (TMRM) fluorescence, cell media was removed and replaced with cell media consisting of 5 nM TMRM (ThermoFisher) and 10 μg/ml Hoechst 33258 stain for 30 mins in the dark at 37° C. to allow incorporation of TMRM into mitochondria. Following PBS washes, FluoroBrite DMEM (Gibco) media was added to cells, followed by subsequent imaging using a Zeiss LSM800 microscope at 37° C. with 5% CO2.

Ub Ser65 phosphorylation [6] = experiment: Phospho-Ub (Ub Ser65) immunoblotting in parkin- or YFP-parkin-transfected HeLa cells; type: cell-based; details: for inhibition of PINK1-mediated ubiquitin phosphorylation (summary statement): in cells and astrocytes, induced by mitochondrial depolarizing agents CCCP and niclosamide
Method: as §1, §2, §3
The next day membranes were washed in TBST and incubated with horse radish peroxidase (HRP)-conjugated antibodies for 1 h at room temperature with agitation. Following TBST washes, proteins were visualised using Amersham™ ECL™ Prime kit (GE Biosciences) and imaged using the Bio-rad ChemicDoc. Primary antibodies used for western blotting; GAPDH (Abcam cat #ab9485), Phospho-Ub Ser 65 (Sigma-Aldrich cat #ABS1513-1), LC3B (Cell Signaling cat #3868S). Secondary antibodies used for western blotting; anti-rabbit HRP (Agilent Dako cat #P0399), anti-mouse HRP (Agilent Dako cat #P0260).
as §4

[7] = test system: ubiquitin Ser65 phosphorylation; experiment: Ubiquitin Ser65 phosphorylation in astrocytes with or without valinomycin; type: cell-based
Method: Briefly, astrocytes were treated with 50 μM of the nucleobase kinetin, nucleosides 9a and 9c or DMSO for 24 h and 5 h prior to lysis, the samples were treated with 50 nM valinomycin, a mitochondrial uncoupler.

OC[C@H]1O[C@@H](n2cnc3c(NCc4ccco4)ncnc32)[C@H](O)[C@@H]1O [kinetin riboside, N^6-(2-furanylmethyl) adenosine]
prevention of OPA1 cleavage by pre-treatment (OPA1): did not prevent this effect | activation of PINK1 as judged by parkin Ser65 phosphorylation (PINK1 [1]): low level activation of PINK1 | level and PINK1 dependence of mitophagy (WT versus KO MEFs) [2]: low level of mitophagy in a PINK1-dependent manner | mitophagy in PINK1 WT MEFs [2]: induced mitophagy | ubiquitin Ser65 phosphorylation after pre-treatment followed by CCCP, compared to CCCP alone (Ub Ser65 phosphorylation [3]; 50 μM 24 h, then 10 μM CCCP): inhibited | impact on ubiquitin phosphorylation, compound alone (Ub Ser65 phosphorylation [3]): did not have any impact | inhibition of ubiquitin phosphorylation by pre-treatment (Ub Ser65 phosphorylation [3]; YFP-parkin HeLa cells, 50 μM 24 h prior to 10 μM niclosamide or CCCP 1 h): inhibited ubiquitin phosphorylation | CCCP-independent activation of PINK1 in cells, compared to kinetin (PINK1 [4]): more potent CCCP-independent activation of PINK1 | prevention of membrane potential collapse caused by niclosamide and CCCP [5]: did not prevent the membrane potential collapse | inhibition of CCCP-induced phosphorylation of ubiquitin by pre-treatment (Ub Ser65 phosphorylation [6]; YFP-parkin HeLa cells, 50 μM 24 h, then 10 μM CCCP 1 h, immunoblot): inhibited | inhibition of niclosamide-induced phosphorylation of ubiquitin by pre-treatment (Ub Ser65 phosphorylation [6]; YFP-parkin HeLa cells, 50 μM 24 h, then 10 μM niclosamide 1 h, immunoblot): inhibited | inhibition of PINK1-mediated ubiquitin phosphorylation (summary statement) (Ub Ser65 phosphorylation [6]): inhibit ubiquitin phosphorylation | inhibition of CCCP-induced phosphorylation of ubiquitin by pre-treatment (Ub Ser65 phosphorylation [6]; parkin-transfected HeLa cells, 50 μM 24 h, then 10 μM CCCP 3 h, immunoblot): inhibited the CCCP-induced phosphorylation of ubiquitin | phosphorylation of ubiquitin (Ub Ser65), compound alone (Ub Ser65 phosphorylation [6]; parkin-transfected HeLa cells, 50 μM, 24 h, no CCCP, immunoblot): did not lead to any notable phosphorylation of ubiquitin

OC[C@H]1O[C@@H](n2cnc3c(NCc4ccccc4)ncnc32)[C@H](O)[C@@H]1O [9c, (2R,3R,4S,5R)-2-(6-(benzylamino)-9H-purin-9-yl)-5-(hydroxymethyl)tetrahydrofuran-3,4-diol]
activation of PINK1 as judged by parkin Ser65 phosphorylation (PINK1 [1]): low level activation of PINK1 | level and PINK1 dependence of mitophagy (WT versus KO MEFs) [2]: low level of mitophagy in a PINK1-dependent manner | mitophagy in PINK1 WT MEFs [2]: induced mitophagy | ubiquitin Ser65 phosphorylation after pre-treatment followed by valinomycin, compared to valinomycin alone ([7]; 50 μM 24 h, 50 nM valinomycin for 5 h): significant suppression of ubiquitin Ser65 phosphorylation | ubiquitin Ser65 phosphorylation, compound alone ([7]; 50 μM, 24 h): increased phosphorylation | reduction in ubiquitin phosphorylation and parkin localisation compared with kinetin riboside (Ub Ser65 phosphorylation [3]; 50 μM 24 h, then 10 μM CCCP): appears stronger than that induced by kinetin riboside | ubiquitin Ser65 phosphorylation after pre-treatment followed by CCCP, compared to CCCP alone (Ub Ser65 phosphorylation [3]; 50 μM 24 h, then 10 μM CCCP): significant reduction | impact on ubiquitin phosphorylation, compound alone (Ub Ser65 phosphorylation [3]): did not have any impact | inhibition of PINK1-mediated ubiquitin phosphorylation (summary statement) (Ub Ser65 phosphorylation [6]): inhibit ubiquitin phosphorylation
